# Assay results taken from US9936701B2, “Herbicidal compounds” (Syngenta Participations AG, priority 2013, dated 2018).
# System: a variety of test species
# Test: Pre-emergence herbicidal activity (glasshouse, sprayed one day after sowing, evaluated after 13 days)
# Type: in vivo
# Design: key: 5=total damage to plant; 0=no damage to plant
# Details: ABUTH, application pre-emergence, rate 1000 g/Ha, scale 0-5
# How it was run: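 Pre-emergence spray, one day post-sowing; vehicle acetone/water (50:50) + 0.5% Tween 20, aqueous dilution. Glasshouse 24/16 °C, 14 h light, 65% RH, watering twice daily. Score at 13 d on 0–5 scale, 5 = total damage.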
row,SMILES,"Pre-emergence herbicidal damage score, ABUTH"
1,"CC1=C(Cl)C(=O)N(c2cc(C(C)(C)C)on2)C1O (stereo not shown) [A2, 1-(5-tert-butylisoxazol-3-yl)-4-chloro-2-hydroxy-3-methyl-2H-pyrrol-5-one]",5
2,CC1=C(Cl)C(=O)N(c2cc(C(C)C)on2)C1O (stereo not shown) [A11],5
3,CC1=C(Cl)C(=O)N(c2cc(CC(C)C)on2)C1O (stereo not shown) [A12],5
4,CC1=C(Cl)C(=O)N(c2cc(C3CC3)on2)C1O (stereo not shown) [A22],5
5,COC1=C(C)C(=O)N(c2cc(C(C)(C)C)on2)C1O (stereo not shown) [G1],5
6,COC1=C(C)C(=O)N(c2cc(C)on2)C1O (stereo not shown) [G2],5

# Same assay, conditions: ALOMY, application pre-emergence, rate 1000 g/Ha, scale 0-5
row,SMILES,"Pre-emergence herbicidal damage score, ALOMY"
1,"CC1=C(Cl)C(=O)N(c2cc(C(C)(C)C)on2)C1O (stereo not shown) [A2, 1-(5-tert-butylisoxazol-3-yl)-4-chloro-2-hydroxy-3-methyl-2H-pyrrol-5-one]",3
2,CC1=C(Cl)C(=O)N(c2cc(C(C)C)on2)C1O (stereo not shown) [A11],4
3,CC1=C(Cl)C(=O)N(c2cc(CC(C)C)on2)C1O (stereo not shown) [A12],4
4,CC1=C(Cl)C(=O)N(c2cc(C3CC3)on2)C1O (stereo not shown) [A22],4
5,COC1=C(C)C(=O)N(c2cc(C(C)(C)C)on2)C1O (stereo not shown) [G1],3
6,COC1=C(C)C(=O)N(c2cc(C)on2)C1O (stereo not shown) [G2],1

# Same assay, conditions: AMARE, application pre-emergence, rate 1000 g/Ha, scale 0-5
row,SMILES,"Pre-emergence herbicidal damage score, AMARE"
1,"CC1=C(Cl)C(=O)N(c2cc(C(C)(C)C)on2)C1O (stereo not shown) [A2, 1-(5-tert-butylisoxazol-3-yl)-4-chloro-2-hydroxy-3-methyl-2H-pyrrol-5-one]",5
2,CC1=C(Cl)C(=O)N(c2cc(C(C)C)on2)C1O (stereo not shown) [A11],5
3,CC1=C(Cl)C(=O)N(c2cc(CC(C)C)on2)C1O (stereo not shown) [A12],4
4,CC1=C(Cl)C(=O)N(c2cc(C3CC3)on2)C1O (stereo not shown) [A22],4
5,COC1=C(C)C(=O)N(c2cc(C(C)(C)C)on2)C1O (stereo not shown) [G1],5
6,COC1=C(C)C(=O)N(c2cc(C)on2)C1O (stereo not shown) [G2],5

# Same assay, conditions: ECHCG, application pre-emergence, rate 1000 g/Ha, scale 0-5
row,SMILES,"Pre-emergence herbicidal damage score, ECHCG"
1,"CC1=C(Cl)C(=O)N(c2cc(C(C)(C)C)on2)C1O (stereo not shown) [A2, 1-(5-tert-butylisoxazol-3-yl)-4-chloro-2-hydroxy-3-methyl-2H-pyrrol-5-one]",5
2,CC1=C(Cl)C(=O)N(c2cc(C(C)C)on2)C1O (stereo not shown) [A11],5
3,CC1=C(Cl)C(=O)N(c2cc(CC(C)C)on2)C1O (stereo not shown) [A12],5
4,CC1=C(Cl)C(=O)N(c2cc(C3CC3)on2)C1O (stereo not shown) [A22],5
5,COC1=C(C)C(=O)N(c2cc(C(C)(C)C)on2)C1O (stereo not shown) [G1],5
6,COC1=C(C)C(=O)N(c2cc(C)on2)C1O (stereo not shown) [G2],3

# Same assay, conditions: SETFA, application pre-emergence, rate 1000 g/Ha, scale 0-5
row,SMILES,"Pre-emergence herbicidal damage score, SETFA"
1,"CC1=C(Cl)C(=O)N(c2cc(C(C)(C)C)on2)C1O (stereo not shown) [A2, 1-(5-tert-butylisoxazol-3-yl)-4-chloro-2-hydroxy-3-methyl-2H-pyrrol-5-one]",5
2,CC1=C(Cl)C(=O)N(c2cc(C(C)C)on2)C1O (stereo not shown) [A11],5
3,CC1=C(Cl)C(=O)N(c2cc(CC(C)C)on2)C1O (stereo not shown) [A12],5
4,CC1=C(Cl)C(=O)N(c2cc(C3CC3)on2)C1O (stereo not shown) [A22],5
5,COC1=C(C)C(=O)N(c2cc(C(C)(C)C)on2)C1O (stereo not shown) [G1],4
6,COC1=C(C)C(=O)N(c2cc(C)on2)C1O (stereo not shown) [G2],3

# Same assay, conditions: ZEAMX, application pre-emergence, rate 1000 g/Ha, scale 0-5
row,SMILES,"Pre-emergence herbicidal damage score, ZEAMX"
1,"CC1=C(Cl)C(=O)N(c2cc(C(C)(C)C)on2)C1O (stereo not shown) [A2, 1-(5-tert-butylisoxazol-3-yl)-4-chloro-2-hydroxy-3-methyl-2H-pyrrol-5-one]",3
2,CC1=C(Cl)C(=O)N(c2cc(C(C)C)on2)C1O (stereo not shown) [A11],2
3,CC1=C(Cl)C(=O)N(c2cc(CC(C)C)on2)C1O (stereo not shown) [A12],1
4,CC1=C(Cl)C(=O)N(c2cc(C3CC3)on2)C1O (stereo not shown) [A22],1
5,COC1=C(C)C(=O)N(c2cc(C(C)(C)C)on2)C1O (stereo not shown) [G1],1
6,COC1=C(C)C(=O)N(c2cc(C)on2)C1O (stereo not shown) [G2],1

# System: not given
# Test: not given
# Details: not given
row,SMILES,melting point
1,"CC1=C(Cl)C(=O)N(c2cc(C(C)(C)C)on2)C1O (stereo not shown) [A2, 1-(5-tert-butylisoxazol-3-yl)-4-chloro-2-hydroxy-3-methyl-2H-pyrrol-5-one]",156 to 158 °C
2,CC1=C(Cl)C(=O)N(c2cc(C(C)C)on2)C1O (stereo not shown) [A11],126 to 128 °C
3,CC1=C(Cl)C(=O)N(c2cc(CC(C)C)on2)C1O (stereo not shown) [A12],138 to 140 °C
4,CC1=C(Cl)C(=O)N(c2cc(C3CC3)on2)C1O (stereo not shown) [A22],174 to 176 °C

# System: a variety of test species
# Test: Post-emergence herbicidal activity (glasshouse, sprayed after 8 days cultivation, evaluated after 13 days)
# Type: in vivo
# Design: key: 5=total damage to plant; 0=no damage to plant
# Details: Abutilon theophrasti, rate 1000 g/Ha, scale 0-5
# How it was run: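 Seeds were sown in standard soil and cultivated for 8 days under controlled glasshouse conditions. Seedlings were then sprayed with an aqueous solution of the formulated compound containing 0.5% Tween 20. Injury was rated after a further 13 days, where 5 indicated total damage.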
row,SMILES,"ABUTH (Abutilon theophrasti) damage score, application post-emergence"
1,"CC1=C(Cl)C(=O)N(c2cc(C(C)(C)C)on2)C1O (stereo not shown) [A2, 1-(5-tert-butylisoxazol-3-yl)-4-chloro-2-hydroxy-3-methyl-2H-pyrrol-5-one]",5
2,CC1=C(Cl)C(=O)N(c2cc(C(C)C)on2)C1O (stereo not shown) [A11],5
3,CC1=C(Cl)C(=O)N(c2cc(CC(C)C)on2)C1O (stereo not shown) [A12],5
4,CC1=C(Cl)C(=O)N(c2cc(C3CC3)on2)C1O (stereo not shown) [A22],5
5,COC1=C(C)C(=O)N(c2cc(C(C)(C)C)on2)C1O (stereo not shown) [G1],5
6,COC1=C(C)C(=O)N(c2cc(C)on2)C1O (stereo not shown) [G2],3

# Same assay, conditions: Alopecurus myosuroides, rate 1000 g/Ha, scale 0-5
row,SMILES,"ALOMY (Alopecurus myosuroides) damage score, application post-emergence"
1,"CC1=C(Cl)C(=O)N(c2cc(C(C)(C)C)on2)C1O (stereo not shown) [A2, 1-(5-tert-butylisoxazol-3-yl)-4-chloro-2-hydroxy-3-methyl-2H-pyrrol-5-one]",5
2,CC1=C(Cl)C(=O)N(c2cc(C(C)C)on2)C1O (stereo not shown) [A11],5
3,CC1=C(Cl)C(=O)N(c2cc(CC(C)C)on2)C1O (stereo not shown) [A12],5
4,CC1=C(Cl)C(=O)N(c2cc(C3CC3)on2)C1O (stereo not shown) [A22],5
5,COC1=C(C)C(=O)N(c2cc(C(C)(C)C)on2)C1O (stereo not shown) [G1],5
6,COC1=C(C)C(=O)N(c2cc(C)on2)C1O (stereo not shown) [G2],2

# Same assay, conditions: Amaranthus retroflexus, rate 1000 g/Ha, scale 0-5
row,SMILES,"AMARE (Amaranthus retroflexus) damage score, application post-emergence"
1,"CC1=C(Cl)C(=O)N(c2cc(C(C)(C)C)on2)C1O (stereo not shown) [A2, 1-(5-tert-butylisoxazol-3-yl)-4-chloro-2-hydroxy-3-methyl-2H-pyrrol-5-one]",5
2,CC1=C(Cl)C(=O)N(c2cc(C(C)C)on2)C1O (stereo not shown) [A11],5
3,CC1=C(Cl)C(=O)N(c2cc(CC(C)C)on2)C1O (stereo not shown) [A12],5
4,CC1=C(Cl)C(=O)N(c2cc(C3CC3)on2)C1O (stereo not shown) [A22],5
5,COC1=C(C)C(=O)N(c2cc(C(C)(C)C)on2)C1O (stereo not shown) [G1],5
6,COC1=C(C)C(=O)N(c2cc(C)on2)C1O (stereo not shown) [G2],5

# Same assay, conditions: Echinochloa crus-galli, rate 1000 g/Ha, scale 0-5
row,SMILES,"ECHCG (Echinochloa crus-galli) damage score, application post-emergence"
1,"CC1=C(Cl)C(=O)N(c2cc(C(C)(C)C)on2)C1O (stereo not shown) [A2, 1-(5-tert-butylisoxazol-3-yl)-4-chloro-2-hydroxy-3-methyl-2H-pyrrol-5-one]",5
2,CC1=C(Cl)C(=O)N(c2cc(C(C)C)on2)C1O (stereo not shown) [A11],5
3,CC1=C(Cl)C(=O)N(c2cc(CC(C)C)on2)C1O (stereo not shown) [A12],5
4,CC1=C(Cl)C(=O)N(c2cc(C3CC3)on2)C1O (stereo not shown) [A22],5
5,COC1=C(C)C(=O)N(c2cc(C(C)(C)C)on2)C1O (stereo not shown) [G1],5
6,COC1=C(C)C(=O)N(c2cc(C)on2)C1O (stereo not shown) [G2],2

# Same assay, conditions: Setaria faberi, rate 1000 g/Ha, scale 0-5
row,SMILES,"SETFA (Setaria faberi) damage score, application post-emergence"
1,"CC1=C(Cl)C(=O)N(c2cc(C(C)(C)C)on2)C1O (stereo not shown) [A2, 1-(5-tert-butylisoxazol-3-yl)-4-chloro-2-hydroxy-3-methyl-2H-pyrrol-5-one]",5
2,CC1=C(Cl)C(=O)N(c2cc(C(C)C)on2)C1O (stereo not shown) [A11],5
3,CC1=C(Cl)C(=O)N(c2cc(CC(C)C)on2)C1O (stereo not shown) [A12],5
4,CC1=C(Cl)C(=O)N(c2cc(C3CC3)on2)C1O (stereo not shown) [A22],5
5,COC1=C(C)C(=O)N(c2cc(C(C)(C)C)on2)C1O (stereo not shown) [G1],5
6,COC1=C(C)C(=O)N(c2cc(C)on2)C1O (stereo not shown) [G2],1

# Same assay, conditions: Zea mays, rate 1000 g/Ha, scale 0-5
row,SMILES,"ZEAMX (Zea mays) damage score, application post-emergence"
1,"CC1=C(Cl)C(=O)N(c2cc(C(C)(C)C)on2)C1O (stereo not shown) [A2, 1-(5-tert-butylisoxazol-3-yl)-4-chloro-2-hydroxy-3-methyl-2H-pyrrol-5-one]",5
2,CC1=C(Cl)C(=O)N(c2cc(C(C)C)on2)C1O (stereo not shown) [A11],5
3,CC1=C(Cl)C(=O)N(c2cc(CC(C)C)on2)C1O (stereo not shown) [A12],4
4,CC1=C(Cl)C(=O)N(c2cc(C3CC3)on2)C1O (stereo not shown) [A22],4
5,COC1=C(C)C(=O)N(c2cc(C(C)(C)C)on2)C1O (stereo not shown) [G1],5
6,COC1=C(C)C(=O)N(c2cc(C)on2)C1O (stereo not shown) [G2],1
